Data published in patent US8026218B2, “Bifunctional analgesic compounds for opioid receptor agonists and neurokinin-1 receptor antagonists” (The University of Arizona, priority 2006, dated 2011).
Read-outs that look alike come from different tables or passages of the source.

Columns and labels:
[1] = target: T1, human NK1 receptor (hNK1) (Homo sapiens, UniProt P25103); assay: Radioligand competition binding, [3H]-Substance P, hNK1; conditions: for species difference between affinities at rNK1 and hNK1: Ki rNK1 vs Ki hNK1
T1 construct: expressed in transfected cells

[2] = target: T2, Substance P receptors (guinea pig NK1) (Cavia porcellus, UniProt P30547); assay: Guinea pig isolated ileum (GPI) assay with substance P stimulation in presence of 1 μM naloxone; conditions: for Kb: Substance P antagonist, GPI, in the presence of 1 μM naloxone
T2 construct: from tissue; host or cells: guinea pig (Hartley) ileum LMMP, 1 μM naloxone present
Description: Testing stopped at 1 mM concentrations of the test compound.
Analysis of GPI and MVD assays. For opioid data analysis, percentage inhibition was calculated using the average tissue contraction height for 1 min preceding the addition of the agonist divided by the contraction height 3 min after exposure to the dose of agonist. […] IC50 and Emax estimates were determined by computerized nonlinear least-squares analysis (the pharmacological statistics package FlashCalc: Dr. Michael Ossipov, University of Arizona, Tucson, Ariz.). […] A50 values represent the mean of not less than 4 tissues. A50 and Emax estimates were determined by computerized nonlinear least-squares analysis (FlashCalc).

[3] = target: T3, rat μ opioid receptors (rMOR) (Rattus norvegicus, UniProt P33535); assay: Radioligand competition binding, [3H]DAMGO, rMOR membranes
T3 construct: expressed in transfected cells; host or cells: HN9.10 neuroblastoma cell line, pCDNA3, neomycin-selected clones

[4] = system: μ opioid receptors (GPI); assay: Guinea pig isolated ileum (GPI) assay, opioid agonist;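 note: inhibition of electrically evoked contractions (0.1 Hz, 0.4 msec, supramaximal voltage) in organ baths at 37 °C, contraction height 3 min after each cumulative dose versus the 1 min before dosing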
[5] = target: T4, human δ opioid receptors (hDOR) (Homo sapiens, UniProt P41143); assay: [35S]GTP-γ-S binding assay, hDOR; format: biochemical
T4 construct: expressed in transfected cells; host or cells: HN9.10 neuroblastoma cell line, pCDNA3, neomycin-selected clones

[6] = target: T5, δ opioid receptors (MVD) (Mus musculus, UniProt P32300); assay: Mouse isolated vas deferens (MVD) assay, opioid agonist
T5 construct: from tissue; host or cells: mouse (ICR) isolated vas deferens

[7] = target: T6, rat NK1 (rNK1) receptor (Rattus norvegicus, UniProt P14600); assay: Radioligand competition binding, [3H]substance P, rNK1/CHO membranes; conditions: for IC50: membranes from transfected CHO cells; for Ki: read-out: Affinity rNK1 (Ki; nM)
T6 construct: expressed in transfected cells; host or cells: CHO (rNK-1/CHO cell line from Dr. James Krause)

[8] = Brain distribution, in situ perfusion model; format: in vivo; conditions: FIG. 20
[9] = target: T3, rat μ opioid receptors (rMOR); assay: biochemical; format: biochemical
[10] = target: T4, human δ opioid receptors (hDOR); assay: Radioligand competition binding, [3H]DPDPE, hDOR membranes
[11] = Octanol/saline distribution (logD7.4); format: physicochemical; conditions: 0.05 N HEPES buffer in 0.1 N NaCl
Description: HEPES buffer (0.05 M HEPES buffer in 0.1 M NaCl, pH 7.4, 500 μL) was added to 2 mg of compound and mixed with 500 μL of 1-octanol. The sample was shaken at r.t. for 12 h to allow equilibrating. The sample was centrifuged at 6500 rpm in a VanGuard V6500 (GlaxoSmithKline, Research Triangle Park, N.C.) for 15 min. The layers were separated and each layer was centrifuged once again. The compound concentrations of obtained layers were analyzed by HPLC (30-70% of acetonitrile containing 0.1% TFA within 20 min and up to 95% within additional 5 min, 1 mL/min, 230 nm, Vydac 218TP104 C-18 column). The logarithm of 1-octanol/saline distribution (logD7.4) was calculated as the ratio of compound concentration in the 1-octanol and saline phases.
Octanol/saline distribution (logD7.4) (Yamamoto, 2007, J. Med. Chem., submitted). HEPES buffer (0.05 M HEPES buffer in 0.1 M NaCl, pH 7.4, 500 μL) was added to 2 mg of compound and mixed with 500 μL of 1-octanol. The sample was shaken at r.t. for 12 h to allow equilibrating. The sample was centrifuged at 6500 rpm in a VanGuard V6500 (GlaxoSmithKline, Research Triangle Park, N.C.) for 15 min. The layers were separated and each layer was centrifuged once again. The compound concentrations in the obtained layers were analyzed by HPLC (30-70% of acetonitrile containing 0.1% TFA within 20 min and up to 95% within additional 5 min, 1 mL/min, 230 nm, Vydac 218TP104 C-18 column). The logarithm of 1-octanol/saline distribution (logD7.4) was calculated as the ratio of compound concentration in the 1-octanol and saline phases.

[12] = Solubility in HEPES buffer; format: physicochemical; conditions: pH 7.4; 0.05 N HEPES buffer in 0.1 N NaCl solution
Description: Solubility. HEPES buffer (0.05 M HEPES buffer in 0.1 M NaCl, pH 7.4, 500 μL) was added to 1 mg of compound. The sample was vortexed for 30 sec, sonicated for 5 min, shaken at r.t. for 2 h, and then allowed to be stayed overnight to equilibration. The sample was filtrated with an Acrodisc Syringe Filter (13 mm, 0.45 μm pore, PTFE membrane, Pall Life Sciences, East Hills, N.Y.).

[13] = FIG. 47
Description: Table printed on a drawing sheet, FIG. 47
The patent's description of the figure: FIG. 47. Concentration of cyclic compounds in rat plasma after incubation at 37° C.

[14] = target: MOR (Homo sapiens, UniProt P35372); conditions: previous studies; read-out: Affinity (Ki in nM), MOR; cited from earlier work
[15] = target: DOR (Homo sapiens, UniProt P41143); conditions: previous studies; read-out: Affinity (Ki in nM), DOR; cited from earlier work
[16] = target: rNK1 (Rattus norvegicus, UniProt P14600); conditions: previous studies; read-out: Affinity (Ki in nM), rNK1; cited from earlier work
[17] = membranes from transfected HN9.10 cells
[18] = Table 39, read-out: GPI/LMMP opioid(mu) agonist (IC50; nM)
[19] = electrically stimulated isolated tissue, read-out: GPI (μ), IC50
[20] = Table 30, read-out: GPI/LMMP Opioid(m) Agonist (IC50; nM)

T3 sequence (P33535 whole entry): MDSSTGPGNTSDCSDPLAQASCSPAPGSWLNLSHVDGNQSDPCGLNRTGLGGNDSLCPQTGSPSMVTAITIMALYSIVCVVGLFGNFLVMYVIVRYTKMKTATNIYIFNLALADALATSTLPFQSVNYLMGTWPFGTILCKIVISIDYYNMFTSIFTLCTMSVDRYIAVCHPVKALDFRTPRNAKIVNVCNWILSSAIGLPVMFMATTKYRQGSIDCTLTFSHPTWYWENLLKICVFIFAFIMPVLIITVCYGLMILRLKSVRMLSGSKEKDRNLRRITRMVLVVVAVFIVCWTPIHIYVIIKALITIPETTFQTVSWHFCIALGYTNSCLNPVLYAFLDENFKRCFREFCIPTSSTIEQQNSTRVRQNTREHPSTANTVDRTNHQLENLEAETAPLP
T2 sequence (P30547 whole entry): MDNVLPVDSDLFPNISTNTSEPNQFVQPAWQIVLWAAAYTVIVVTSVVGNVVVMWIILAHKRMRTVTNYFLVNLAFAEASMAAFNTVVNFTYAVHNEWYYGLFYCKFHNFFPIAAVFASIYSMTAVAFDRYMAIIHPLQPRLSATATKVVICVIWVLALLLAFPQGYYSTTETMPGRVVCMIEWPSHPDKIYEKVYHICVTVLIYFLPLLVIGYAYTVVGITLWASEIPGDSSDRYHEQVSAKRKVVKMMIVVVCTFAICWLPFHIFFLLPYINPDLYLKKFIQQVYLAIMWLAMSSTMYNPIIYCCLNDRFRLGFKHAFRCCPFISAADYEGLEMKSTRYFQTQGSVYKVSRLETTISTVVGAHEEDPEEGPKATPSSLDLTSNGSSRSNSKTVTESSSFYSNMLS
T5 sequence (P32300 whole entry): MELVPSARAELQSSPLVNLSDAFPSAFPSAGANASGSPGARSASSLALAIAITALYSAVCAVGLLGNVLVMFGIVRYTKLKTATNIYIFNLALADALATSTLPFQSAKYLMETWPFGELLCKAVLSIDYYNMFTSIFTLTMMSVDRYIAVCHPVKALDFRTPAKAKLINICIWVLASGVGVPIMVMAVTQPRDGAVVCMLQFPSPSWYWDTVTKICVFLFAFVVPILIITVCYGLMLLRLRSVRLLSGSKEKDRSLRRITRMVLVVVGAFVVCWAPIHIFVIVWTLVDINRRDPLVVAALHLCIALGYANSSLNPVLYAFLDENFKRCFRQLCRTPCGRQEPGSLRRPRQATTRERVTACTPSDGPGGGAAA
T1 sequence (P25103 whole entry): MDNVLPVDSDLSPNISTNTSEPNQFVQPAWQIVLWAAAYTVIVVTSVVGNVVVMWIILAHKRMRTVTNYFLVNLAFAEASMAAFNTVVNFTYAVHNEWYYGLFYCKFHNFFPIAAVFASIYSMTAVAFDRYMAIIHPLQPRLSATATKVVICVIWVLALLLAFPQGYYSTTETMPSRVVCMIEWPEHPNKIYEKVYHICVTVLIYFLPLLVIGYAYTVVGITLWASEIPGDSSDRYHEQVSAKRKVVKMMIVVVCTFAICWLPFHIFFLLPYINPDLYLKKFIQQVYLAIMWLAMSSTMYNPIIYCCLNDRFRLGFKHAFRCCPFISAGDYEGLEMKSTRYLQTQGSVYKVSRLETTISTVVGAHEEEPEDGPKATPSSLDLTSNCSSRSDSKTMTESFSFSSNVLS
Chain of MOR (P35372 whole entry): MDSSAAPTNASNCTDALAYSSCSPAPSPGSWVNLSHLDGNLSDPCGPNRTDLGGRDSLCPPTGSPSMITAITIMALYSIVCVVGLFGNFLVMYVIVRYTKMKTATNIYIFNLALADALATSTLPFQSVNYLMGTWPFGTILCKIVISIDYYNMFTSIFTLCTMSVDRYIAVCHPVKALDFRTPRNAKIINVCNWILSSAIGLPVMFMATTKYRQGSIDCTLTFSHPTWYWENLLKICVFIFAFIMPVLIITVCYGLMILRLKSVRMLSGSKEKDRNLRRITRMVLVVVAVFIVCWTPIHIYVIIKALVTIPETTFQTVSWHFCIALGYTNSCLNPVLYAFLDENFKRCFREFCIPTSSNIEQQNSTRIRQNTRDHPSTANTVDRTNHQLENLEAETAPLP
Chain of rNK1 (P14600 whole entry): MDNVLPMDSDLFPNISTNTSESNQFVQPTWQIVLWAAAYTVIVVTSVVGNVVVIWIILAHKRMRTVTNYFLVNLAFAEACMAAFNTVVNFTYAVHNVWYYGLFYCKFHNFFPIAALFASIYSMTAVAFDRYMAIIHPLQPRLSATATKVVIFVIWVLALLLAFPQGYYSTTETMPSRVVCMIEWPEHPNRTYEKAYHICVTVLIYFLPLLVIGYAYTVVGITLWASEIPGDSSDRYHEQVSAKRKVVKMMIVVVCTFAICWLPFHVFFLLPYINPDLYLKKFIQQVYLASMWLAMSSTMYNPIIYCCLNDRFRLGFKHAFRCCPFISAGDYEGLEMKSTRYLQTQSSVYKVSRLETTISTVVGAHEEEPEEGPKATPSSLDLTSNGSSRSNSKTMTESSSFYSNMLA
T6 sequence (P14600 whole entry): as above
T4 sequence (P41143 whole entry): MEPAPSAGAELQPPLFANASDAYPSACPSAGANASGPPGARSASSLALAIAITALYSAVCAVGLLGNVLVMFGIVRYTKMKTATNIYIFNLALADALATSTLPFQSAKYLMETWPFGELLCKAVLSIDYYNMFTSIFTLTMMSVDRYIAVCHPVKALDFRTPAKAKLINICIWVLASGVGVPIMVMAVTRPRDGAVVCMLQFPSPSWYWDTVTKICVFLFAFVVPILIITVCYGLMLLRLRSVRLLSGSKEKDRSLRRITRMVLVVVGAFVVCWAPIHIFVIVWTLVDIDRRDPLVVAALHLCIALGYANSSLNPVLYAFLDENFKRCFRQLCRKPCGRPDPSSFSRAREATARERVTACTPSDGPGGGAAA
Chain of DOR (P41143 whole entry): as above

Compound: CC(C)C[C@H](NC(=O)[C@@H]1CCCN1C(=O)[C@H](CC(C)C)NC(=O)[C@H](Cc1ccccc1)NC(=O)CNC(=O)[C@@H](C)NC(=O)[C@@H](N)Cc1ccc(O)cc1)C(=O)N[C@@H](Cc1c[nH]c2ccccc12)C(=O)OCc1cc(C(F)(F)F)cc(C(F)(F)F)c1 [TY004, H-Tyr-D-Ala-Gly-Phe-Leu-Pro-Leu-Trp-O-3,5-Bzl(CF3)2]
- Ki [1]: 0.016 nM
- IC50 [2]: 19.4 nM
- Kb ([2]; Ke): 19.4 ± 5 nM
- GPI/LMMP SP Agonist (IC50; nM) ([2]; Table 39, concentration not given): none
- activation at 1 µM ([2]; read-out: Substance P GPI agonist (A50), at 1 μM, contraction relative to initial muscle contraction with KCl): 0%
- Ki [3]: 23.3 nM
- LogIC50, rMOR, [3H]DAMGO [3, 17]: −7.30 ± 0.07
- IC50 ([4]; Table 28, read-out: GPI/LMMP Opioid(m) Agonist (IC50; nM)): 341 nM
- IC50 [4, 18]: 341 nM
- IC50 [4, 19]: 341 ± 71 nM
- Ki(μ)/Ki(δ) [5]: 3.4
- LogEC50, hDOR, [35S]GTP-γ-S binding [5]: −8.09 ± 0.18
- δ selectivity in [35S]GTP-γ-S binding assays [5]: 3.4 fold
- EC50 ([5]; Table 27, read-out: GTP binding hDOR EC50): 9.6 nM
- Emax ([5]; Table 27, read-out: GTP binding hDOR Emax (%)): 42.5%
- EC50 ([5]; Table 39, read-out: GTP binding hDOR EC50): 9.6 nM
- Emax ([5]; Table 39, read-out: GTP binding hDOR Emax): 42.5%
- Emax ([5]; net total bound/basal binding × 100, read-out: Emax, hDOR, [35S]GTP-γ-S binding): 44%
- EC50 ([5]; read-out: EC50, hDOR, [35S]GTP-γ-S binding): 9.6 nM
- IC50 [6]: 101 nM
- δ selectivity in MVD and GPI assays [6]: 3.4 fold
- IC50(MVD)/IC50(GPI) ([6]; Table 4): 3.4
- IC50 ([6]; electrically stimulated isolated tissue, read-out: MVD (δ), IC50): 101 ± 25 nM
- IC50 ([7]; IC50, rNK1, Substance P radioligand): 20.9 nM
- IC50 ([7]; LogIC50, rNK1, Substance P radioligand): 20 nM
- blood brain barrier penetration [8]: penetrate blood brain barrier
- LogEC50, rMOR, [35S]GTP-γ-S binding [9]: −7.48 ± 0.16
- EC50 ([9]; GTP binding rMOR EC50): 39.8 nM
- EC50 ([9]; read-out: EC50, rMOR, [35S]GTP-γ-S binding): 33 nM
- Emax ([9]; read-out: Emax, rMOR, [35S]GTP-γ-S binding): 46%
- Emax ([9]; read-out: GTP binding rMOR Emax): 44.5%
- Emax ([9]; read-out: GTP binding rMOR Emax (%)): 44.5%
- Ki [10]: 23.3 nM
- δ selectivity over μ in binding assays ([10]; Ki(μ)/Ki(δ)): 4.7 fold
- Ki ([10]; Table 27, read-out: Affinity hDOR (Ki; nM)): 5 nM
- Ki ([10]; Table 39, read-out: Affinity hDOR (Ki; nM)): 5 nM
- Ki(μ)/Ki(δ) ([10]; binding, rMOR vs hDOR): 4.7
- LogIC50, hDOR, [3H]DPDPE [10, 17]: −7.97 ± 0.07
- Ki ([10]; read-out: Ki, hDOR, [3H]DPDPE): 5 nM

Compound: CSCC[C@H](NC(=O)[C@H](Cc1ccccc1)NC(=O)CNC(=O)[C@@H](C)NC(=O)[C@@H](N)Cc1ccc(O)cc1)C(=O)N1CCC[C@H]1C(=O)N[C@@H](CC(C)C)C(=O)N[C@@H](Cc1c[nH]c2ccccc12)C(=O)NCc1ccccc1 [TY025, H-Tyr-D-Ala-Gly-Phe-Met-Pro-Leu-Trp-NH-Bzl]
- species difference between affinities at rNK1 and hNK1 [1]: 220 fold
- Kb ([2]; Ke (nM), Table 16): 9.9 ± 2.8 nM
- IC50 [4, 20]: 61.1 nM
- IC50 [4, 18]: 61.1 nM
- IC50 [4, 19]: 61 nM
- LogEC50, hDOR ([5]; Table 14, logarithm of EC50 (negative), HN9.10 cell): −8.6 ± 0.13
- Ki ([7]; Table 39): 696 nM
- blood brain barrier penetration [8]: penetrate blood brain barrier
- logD7.4 [11]: 3.6

Compound: CSCC[C@H](NC(=O)[C@H](Cc1ccccc1)NC(=O)CNC(=O)[C@@H](C)NC(=O)[C@@H](N)Cc1ccc(O)cc1)C(=O)N1CCC[C@H]1C(=O)N[C@@H](CC(C)C)C(=O)N[C@@H](Cc1c[nH]c2ccccc12)C(=O)NCc1cc(C(F)(F)F)cc(C(F)(F)F)c1 [TY027, H-Tyr-D-Ala-Gly-Phe-Met-Pro-Leu-Trp-NH-3,5-Bzl(CF3)2]
- species difference between affinities at rNK1 and hNK1 [1]: 1100 fold
- Kb ([2]; Ke (nM), Table 16): 10 ± 2.1 nM
- IC50 ([4]; Table 16, electrically stimulated isolated tissue, read-out: Opioid agonist GPI (μ), IC50): 490 ± 29 nM
- IC50 ([4]; Table 22, electrically stimulated isolated tissue, read-out: Opioid agonist GPI (μ), IC50): 490 ± 29 nM
- IC50 [4, 20]: 488 nM
- IC50 [4, 18]: 488 nM
- IC50 [4, 19]: 490 nM
- IC50 [6]: 14.5 nM
- Ki ([7]; Table 29): 7.27 nM
- logD7.4 [11]: >4.0
- solubility [12]: < 0.2 µg/mL

Compound: CC(C)C[C@H](NC(=O)[C@@H]1CCCN1C(=O)[C@H]1NC(=O)[C@H](Cc2ccccc2)NC(=O)CNC(=O)[C@H](NC(=O)[C@@H](N)Cc2ccc(O)cc2)C(C)(C)SSC1(C)C)C(=O)N[C@@H](Cc1c[nH]c2ccccc12)C(=O)NCc1cc(C(F)(F)F)cc(C(F)(F)F)c1 [TY046]
- Ki [1]: 0.0053 nM
- Ki [3]: 2330 nM
- Emax ([5]; read-out: GTP binding hDOR Emax): 15%
- Emax ([5]; read-out: GTP binding hDOR Emax (%)): 15%
- T1/2 [13]: 8.0 h

Compound: HTyrDAlaDPhePheDTrpLeuMetNH2 [JSOH9]
- Ki [14]: 606 nM
- Ki [15]: 0.72 nM
- Ki [16]: 2940 nM

Compound: HTyrDAlaDTrpPheDTrpLeuLeuNH2 [JSOH11]
- Ki [14]: 164 nM
- Ki [15]: 16.5 nM
- Ki [16]: 7320 nM

Compound: HTyrDAlaGlyPheNHNHTrpCbz [AA501]
- Ki [14]: 80 nM
- Ki [16]: 5000 nM

Compound: HTyrProPhePheGlyLeuMetNH2 (H-YPFFGLM-NH2) [ESP7]
- Ki [14]: 218 nM
- Ki [16]: 289 nM

Compound: HTyrProPhePheProLeuMetNH2 (H-YPFFPLM-NH2) [ESP6]
- Ki [14]: 92 nM
- Ki [16]: 305 nM
